{"source": "patent US20090182020A1", "about": "“SUBSTITUTED BIS(HETERO)AROMATIC N--ETHYLPROPIOLAMIDES AND USE THEREOF FOR PRODUCTION OF MEDICAMENTS” (GRUNENTHAL GMBH, priority 2005, published 2009)"}
{"target": "T1, mGluR5 receptor (pig) (Sus scrofa, UniProt I3LUI7)", "T1 construct": "450 μg protein from brain homogenate is incubated with 5 nM ^3[H]-MPEP; from tissue; host or cells: pig brain halves without medulla, cerebellum and pons", "T1 sequence (I3LUI7 19-1212)": "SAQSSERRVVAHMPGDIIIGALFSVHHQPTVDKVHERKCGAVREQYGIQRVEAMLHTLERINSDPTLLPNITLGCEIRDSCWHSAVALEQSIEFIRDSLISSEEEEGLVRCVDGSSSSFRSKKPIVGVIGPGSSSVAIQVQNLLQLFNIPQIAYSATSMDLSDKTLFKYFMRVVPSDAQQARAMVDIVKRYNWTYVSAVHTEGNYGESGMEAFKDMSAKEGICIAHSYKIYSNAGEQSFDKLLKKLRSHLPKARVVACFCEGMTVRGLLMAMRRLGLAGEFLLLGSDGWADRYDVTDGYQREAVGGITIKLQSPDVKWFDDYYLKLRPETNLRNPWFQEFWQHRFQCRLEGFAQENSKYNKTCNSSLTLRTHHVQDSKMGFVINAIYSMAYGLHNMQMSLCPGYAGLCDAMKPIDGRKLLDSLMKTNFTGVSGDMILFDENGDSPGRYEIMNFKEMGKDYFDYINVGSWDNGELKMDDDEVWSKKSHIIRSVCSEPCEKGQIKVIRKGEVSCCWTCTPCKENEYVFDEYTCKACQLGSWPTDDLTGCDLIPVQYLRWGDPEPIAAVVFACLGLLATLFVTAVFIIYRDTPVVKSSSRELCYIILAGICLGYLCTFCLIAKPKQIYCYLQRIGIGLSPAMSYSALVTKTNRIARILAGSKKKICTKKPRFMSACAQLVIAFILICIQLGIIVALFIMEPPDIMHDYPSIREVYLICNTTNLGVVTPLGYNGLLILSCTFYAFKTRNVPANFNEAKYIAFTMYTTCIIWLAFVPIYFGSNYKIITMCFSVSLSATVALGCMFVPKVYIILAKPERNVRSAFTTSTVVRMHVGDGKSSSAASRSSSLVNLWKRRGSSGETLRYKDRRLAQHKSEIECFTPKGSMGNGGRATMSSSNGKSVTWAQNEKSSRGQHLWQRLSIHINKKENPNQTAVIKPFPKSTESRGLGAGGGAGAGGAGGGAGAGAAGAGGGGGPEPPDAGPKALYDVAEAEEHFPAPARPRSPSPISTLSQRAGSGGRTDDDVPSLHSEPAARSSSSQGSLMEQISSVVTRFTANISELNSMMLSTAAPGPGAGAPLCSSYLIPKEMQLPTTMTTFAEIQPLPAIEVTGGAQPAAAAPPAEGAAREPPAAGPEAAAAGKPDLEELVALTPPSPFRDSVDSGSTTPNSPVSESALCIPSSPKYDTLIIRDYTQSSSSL", "assay": "[3H]-MPEP bond in the mGluR5 receptor bond assay (pig brain homogenate)", "type": "binding", "conditions": "5 nM [3H]-MPEP; pig brain homogenate", "method": "(§1) I. Method for Determining the Inhibition of the [^3H]-MPEP Bond in the mGluR5 Receptor Bond Assay\n(§2) Pig brain homogenate is produced by homogenisation (Polytron PT 3000, Kinematica AG, 10,000 rpm for 90 seconds) of pig brain halves without medulla, cerebellum and pons in buffer pH 8.0 (30 mM Hepes, Sigma, order no. H3375+1 tablet complete to 100 ml, Roche Diagnostics, order no. 1836145) in the ratio 1:20 (brain weight/volume) and differential centrifugation at 900×g and 40,000×g. In each case, 450 μg protein from brain homogenate is incubated with 5 nM ^3[H]-MPEP (Tocris, order no. […]\n(§3) Thereafter, the batches are filtered with the help of a Brandel Cell Harvester (Brandel, TYP Robotic 9600) on unifilter plates with glass fibre filter mats (Perkin Elmer, order no. 6005177) and subsequently washed with buffer (as above) 3 times with in each case 250 μl per sample. The filter plates are subsequently dried for 60 min at 55° C. 30 μL Ultima Gold™ scintillator (Packard BioScience, order no. 6013159) is subsequently added per well and the samples are measured after 3 hours on the β-counter (Mikrobeta, Perkin Elmer). The unspecific bond is determined by addition of 10 μM MPEP (Tocris, order no. 1212).", "units": {"IC50": "nM"}}
{"compound": "O=C(C#Cc1cccc(Cl)c1)NCCc1ccccc1", "note": "[Example 2, 3-(3-chlorophenyl)-N-phenethylpropiolamide]", "IC50": 44}
{"compound": "O=C(C#Cc1cccc(Cl)c1)NCCc1ccccn1", "note": "[Example 3, 3-(3-chlorophenyl)-N-(2-(pyridine-2-yl)ethyl)propiolamide]", "IC50": 34}
{"compound": "O=C(C#Cc1cccc(Cl)c1)NCCc1ccncc1", "note": "[Example 4, 3-(3-chlorophenyl)-N-(2-(pyridine-4-yl)ethyl)propiolamide]", "IC50": 2000}
{"target": "T1, mGluR5 receptor (pig)", "assay": "[3H]-MPEP bond in the mGluR5 receptor bond assay (pig brain homogenate)", "type": "binding", "conditions": "10 μM test compound; 5 nM [3H]-MPEP; 450 μg protein pig brain homogenate; 60 min room temperature", "method": "as §1, §2, §3", "units": {"inhibition at 10 µM": "%"}}
{"compound": "COc1cccc(C#CC(=O)NCCc2ccccn2)c1", "note": "[Example 6, 3-(3-methoxyphenyl)-N-(2-(pyridine-2-yl)ethyl)propiolamide]", "inhibition at 10 µM": 82}
{"compound": "Cc1cc(C#CC(=O)NCCc2ccccn2)ccc1F", "note": "[Example 7, 3-(4-fluoro-3-methylphenyl)-N-(2-(pyridine-2-yl)ethyl)propiolamide]", "inhibition at 10 µM": 82}
{"compound": "O=C(C#Cc1ccccc1F)NCCc1ccccn1", "note": "[Example 8, 3-(2-fluorophenyl)-N-(2-(pyridine-2-yl)ethyl)propiolamide]", "inhibition at 10 µM": 70}
{"compound": "O=C(C#Cc1ccccc1)NCCc1ccccn1", "note": "[Example 11, 3-phenyl-N-(2-(pyridine-2-yl)ethyl)propiolamide]", "inhibition at 10 µM": 81}
{"compound": "Cc1cccc(C#CC(=O)NCCc2ccccn2)c1", "note": "[Example 18, N-(2-(pyridine-2-yl)ethyl)-3-m-tolyl-propiolamide]", "inhibition at 10 µM": 90}
{"compound": "O=C(C#Cc1ccc(F)cc1)NCCc1ccccn1", "note": "[Example 20, 3-(4-fluoro-phenyl)-N-(2-(pyridine-2-yl)ethyl)propiolamide]", "inhibition at 10 µM": 54}
{"compound": "O=C(C#Cc1cccs1)NCCc1ccccn1", "note": "[Example 25, N-(2-(pyridine-2-yl)ethyl)-3-thiophene-2-yl-propiolamide]", "inhibition at 10 µM": 68}
{"compound": "O=C(C#Cc1ccc2[nH]ccc2c1)NCCc1ccccn1", "note": "[Example 38, 3-(1H-indol-5-yl)-N-(2-(pyridine-2-yl)ethyl)propiolamide]", "inhibition at 10 µM": 36}
{"compound": "Cc1cc(C#CC(=O)N(C)CCc2ccccc2)ccc1F", "note": "[Example 41, 3-(4-fluoro-3-methylphenyl)-N-methyl-N-phenethylpropiolamide]", "inhibition at 10 µM": 92}
{"compound": "CN(CCc1ccccc1)C(=O)C#Cc1ccccc1F", "note": "[Example 42, 3-(2-fluorophenyl)-N-methyl-N-phenethylpropiolamide]", "inhibition at 10 µM": 90}
{"compound": "Cc1cccc(C#CC(=O)N(C)CCc2ccccc2)c1", "note": "[Example 46, N-methyl-N-phenethyl-3-m-tolylpropiolamide]", "inhibition at 10 µM": 97}
{"compound": "Cc1ccc(C#CC(=O)N(C)CCc2ccccc2)c(C)c1", "note": "[Example 47, 3-(2,4-dimethylphenyl)-N-methyl-N-phenethylpropiolamide]", "inhibition at 10 µM": 51}
{"compound": "CN(CCc1ccccc1)C(=O)C#Cc1cccc(C(F)(F)F)c1", "note": "[Example 49, N-methyl-N-phenethyl-3-(3-(trifluoromethyl)phenyl)propiolamide]", "inhibition at 10 µM": 108}
{"compound": "CN(CCc1ccccc1)C(=O)C#Cc1ccccc1C#N", "note": "[Example 55, 3-(2-cyanophenyl)-N-methyl-N-phenethylpropiolamide]", "inhibition at 10 µM": 40}
{"compound": "Cc1cc(C#CC(=O)NCCc2cccs2)ccc1F", "note": "[Example 56, 3-(4-fluoro-3-methylphenyl)-N-(2-(thiophene-2-yl)ethyl)propiolamide]", "inhibition at 10 µM": 54}
{"compound": "Cc1cccc(C#CC(=O)NCCc2c[nH]c3ccccc23)c1", "note": "[Example 57, N-(2-(1H-indol-3-yl)ethyl)-3-m-tolylpropiolamide]", "inhibition at 10 µM": 91}
{"compound": "COc1cccc(C#CC(=O)NCCc2cccc(Cl)c2)c1", "note": "[Example 58, N-(3-chlorophenethyl)-3-(3-methoxyphenyl)propiolamide]", "inhibition at 10 µM": 91}
{"compound": "COc1cccc(C#CC(=O)NCCc2ccc(C)cc2)c1", "note": "[Example 59, 3-(3-methoxyphenyl)-N-(4-methylphenethyl)propiolamide]", "inhibition at 10 µM": 57}
{"compound": "COc1cccc(C#CC(=O)NCCc2ccc(F)cc2)c1", "note": "[Example 61, N-(4-fluorophenethyl)-3-(3-methoxyphenyl)propiolamide]", "inhibition at 10 µM": 85}
{"compound": "Cc1cc(C#CC(=O)NCCc2cccc(Cl)c2)ccc1F", "note": "[Example 62, N-(3-chlorophenethyl)-3-(4-fluoro-3-methylphenyl)propiolamide]", "inhibition at 10 µM": 75}
{"compound": "O=C(C#Cc1ccccc1)NCCc1cccc(Cl)c1", "note": "[Example 65, N-(3-chlorophenethyl)-3-phenylpropiolamide]", "inhibition at 10 µM": 97}
{"compound": "Cc1ccc(CCNC(=O)C#Cc2ccccc2)cc1", "note": "[Example 66, N-(4-methylphenethyl)-3-phenylpropiolamide]", "inhibition at 10 µM": 64}
{"compound": "O=C(C#Cc1ccccc1)NCCc1ccc(F)cc1", "note": "[Example 68, N-(4-fluorophenethyl)-3-phenylpropiolamide]", "inhibition at 10 µM": 90}
{"compound": "Cc1cccc(C#CC(=O)NCCc2cccc(Cl)c2)c1", "note": "[Example 69, N-(3-chlorophenethyl)-3-m-tolylpropiolamide]", "inhibition at 10 µM": 107}
{"compound": "Cc1ccc(CCNC(=O)C#Cc2cccc(C)c2)cc1", "note": "[Example 70, N-(4-methylphenethyl)-3-m-tolylpropiolamide]", "inhibition at 10 µM": 89}
{"compound": "Cc1cccc(C#CC(=O)NCC(c2ccccc2)c2ccccc2)c1", "note": "[Example 71, N-(2,2-diphenylethyl)-3-m-tolylpropiolamide]", "inhibition at 10 µM": 57}
{"compound": "O=C(C#Cc1ccc(F)cc1)NCCc1ccccc1", "note": "[Example 72, 3-(4-fluorophenyl)-N-phenethylpropiolamide]", "inhibition at 10 µM": 57}
{"compound": "O=C(C#Cc1cccs1)NCCc1cccs1", "note": "[Example 73, 3-(thiophene-2-yl)-N-(2-(thiophene-2-yl)ethyl)propiolamide]", "inhibition at 10 µM": 76}
{"compound": "CN(CCc1ccccc1)C(=O)C#Cc1ccc(F)cc1F", "note": "[Example 78, 3-(2,4-difluorophenyl)-N-methyl-N-phenethylpropiolamide]", "inhibition at 10 µM": 69}
{"compound": "COc1cccc(C#CC(=O)N(C)CCc2ccccc2)c1", "note": "[Example 80, 3-(3-methoxyphenyl)-N-methyl-N-phenethylpropiolamide]", "inhibition at 10 µM": 70}
{"compound": "COc1cccc(C#CC(=O)NCCc2ccccc2)c1", "note": "[Example 81, 3-(3-methoxyphenyl)-N-phenethylpropiolamide]", "inhibition at 10 µM": 79}
{"compound": "Cc1cc(C#CC(=O)NCCc2ccccc2)ccc1F", "note": "[Example 82, 3-(4-fluoro-3-methylphenyl)-N-phenethylpropiolamide]", "inhibition at 10 µM": 69}
{"compound": "O=C(C#Cc1ccccc1)NCCc1ccccc1", "note": "[Example 83, N-phenethyl-3-phenylpropiolamide]", "inhibition at 10 µM": 91}
{"compound": "Cc1cccc(C#CC(=O)NCCc2ccccc2)c1", "note": "[Example 84, N-phenethyl-3-m-tolylpropiolamide]", "inhibition at 10 µM": 89}
{"compound": "O=C(C#Cc1cccs1)NCCc1ccccc1", "note": "[Example 85, N-phenethyl-3-(thiophene-2-yl)propiolamide]", "inhibition at 10 µM": 79}
{"compound": "N#Cc1cccc(C#CC(=O)NCCc2ccccc2)c1", "note": "[Example 86, 3-(3-cyanophenyl)-N-phenethylpropiolamide]", "inhibition at 10 µM": 86}
{"compound": "COc1cccc(C#CC(=O)NCCc2c[nH]c3ccccc23)c1", "note": "[Example 87, N-(2-(1H-indol-3-yl)ethyl)-3-(3-methoxyphenyl)propiolamide]", "inhibition at 10 µM": 42}
{"compound": "O=C(C#Cc1ccc(F)cc1)NCCc1cccc(Cl)c1", "note": "[Example 89, N-(3-chlorophenethyl)-3-(4-fluorophenyl)propiolamide]", "inhibition at 10 µM": 64}
{"compound": "O=C(C#Cc1ccc(F)cc1)NCCc1ccc(F)cc1", "note": "[Example 92, N-(4-fluorophenethyl)-3-(4-fluorophenyl)propiolamide]", "inhibition at 10 µM": 42}
{"compound": "O=C(C#Cc1cccc(Cl)c1)NCCc1cccc(Cl)c1", "note": "[Example 93, N-(3-chlorophenethyl)-3-(3-chlorophenyl)propiolamide]", "inhibition at 10 µM": 89}
{"compound": "O=C(C#Cc1cccs1)NCCc1cccc(Cl)c1", "note": "[Example 94, N-(3-chlorophenethyl)-3-(thiophene-2-yl)propiolamide]", "inhibition at 10 µM": 84}
{"compound": "Cc1ccc(CCNC(=O)C#Cc2cccs2)cc1", "note": "[Example 95, N-(4-methylphenethyl)-3-(thiophene-2-yl)propiolamide]", "inhibition at 10 µM": 75}
{"compound": "O=C(C#Cc1cccs1)NCC(c1ccccc1)c1ccccc1", "note": "[Example 96, N-(2,2-diphenylethyl)-3-(thiophene-2-yl)propiolamide]", "inhibition at 10 µM": 31}
{"compound": "Cc1ccc(CCNC(=O)C#Cc2cccc(C#N)c2)cc1", "note": "[Example 97, 3-(3-cyanophenyl)-N-(4-methylphenethyl)propiolamide]", "inhibition at 10 µM": 96}
{"compound": "N#Cc1cccc(C#CC(=O)NCC(c2ccccc2)c2ccccc2)c1", "note": "[Example 98, 3-(3-cyanophenyl)-N-(2,2-diphenylethyl)propiolamide]", "inhibition at 10 µM": 40}
{"compound": "N#Cc1cccc(C#CC(=O)NCCc2ccc(F)cc2)c1", "note": "[Example 99, 3-(3-cyanophenyl)-N-(4-fluorophenethyl)propiolamide]", "inhibition at 10 µM": 89}
{"compound": "O=C(C#Cc1ccccc1)NCCc1ccc(Cl)c(Cl)c1", "note": "[Example 101, N-(3,4-dichlorophenethyl)-3-phenylpropiolamide]", "inhibition at 10 µM": 89}
{"compound": "Cc1cccc(C#CC(=O)NCCc2ccc(Cl)c(Cl)c2)c1", "note": "[Example 102, N-(3,4-dichlorophenethyl)-3-m-tolylpropiolamide]", "inhibition at 10 µM": 105}
